Consider nine molecules from patent publication US10472366B2, “Glucuronide prodrugs of tofacitinib” (THERAVANCE BIOPHARMA R&D IP, LLC, priority 2017, dated 2019).

Data set [1] relates to β-glucuronidase in rat colon feces. Briefly: Rat colon fecal homogenate stability assay. In kind it is in vitro ADME. Conditions: in vitro half-life in rat fecal supernatant-homogenate, anaerobic, 10 μM substrate, individual values when assay repeated; for half-life at 10 μM: male, rat, rat colon fecal supernatant-homogenate, read-out: T½. From the text: The compounds of the present invention contain a glucuronide prodrug moiety that is expected to be cleaved by β-glucuronidase enzyme. The objective of this assay was to determine the half-life for compounds of the present invention in the presence of β-glucuronidase in rat colon feces.
Following sacrifice of a naïve male rat (˜300 g) by cardiac puncture exsanguination, the colon was ligated and removed to an anaerobic chamber (AS-580, Anaerobe Systems). The fecal content was removed within the chamber and was diluted 1:10 with phosphate buffer (1 gram fecal content to 9 mL phosphate buffer) and the resulting mixture was homogenized using a handheld Omni Tissue Master. The fecal homogenate was centrifuged at 2000 g for 10 min to remove bulk material and the supernatant was removed and used for the incubations.
DMSO stock solutions (10 mM) of the test compounds and sulfasalazine (control) were prepared. Sulfasalazine was used as a positive control to confirm viability of the fecal supernatant-homogenate (see, e.g., Azad Khan et al., Clinical Science (1983) 64, 349-354). If the in vitro half-life (T½) for sulfasalazine in the fecal sample was less than 30 min, the fecal sample was deemed to be viable and in true anaerobic conditions. However, if the T½ for sulfasalazine was greater than 30 min, the fecal sample was typically contaminated with oxygen and was not viable. The final substrate concentration of each assay was 10 μM. Reactions were started by adding a 5 μL aliquot of diluted test compound stock solution into 300 μL of rat fecal supernatant-homogenate. At 0, 15, 30, 60, 90, and 120 min post reaction initiation, a 50 μL aliquot was removed and added to a mixture of 200 μL of acetonitrile with 3% formic acid and an internal standard. All samples were centrifuged at 2000 g for 10 min after which 50 μL of supernatant was diluted into 150 μL of water for analysis on an LC-MS system. In vitro half-lives (T½) for the test compounds were calculated as follows: T½=0.693/elimination rate constant. When the assay was performed more than once, individual values are reported.

Data set [2] can be described thus: Oral pharmacokinetics in rat assay. In kind it is in vivo. The conditions noted are these: liberated tofacitinib AUC0-6 h in colon tissue; male Sprague Dawley rats, single PO dose 5 mg/kg of test compound. The procedure:
When cleaved by β-glucuronidase enzyme, the compounds of the present invention release tofacitinib. The object of this assay was to determine tofacitinib exposure (AUC0-6 h) in colon tissue and plasma following oral dosing of compounds of the present invention in rats.
Male Sprague Dawley rats (n=2/time point) received a single PO oral gavage dose (5 mg/kg in 1:20 mixture of 5% DMSO and 1% HPMC) of test compounds. At 0.5, 1, 3, 6 and 24 h post-dosing, rats were sacrificed via cardiac puncture exsanguination, and blood samples were taken and placed into sample tubes (Microtainer, Becton, Dickinson and Company) containing sodium fluoride and then placed on ice. Plasma was obtained by centrifugation (Eppendorf centrifuge, 5804R) for 4 minutes at approximately 12,000 rpm at 4° C.
The colons were removed from exsanguinated rats and the colon contents gently removed. The colons were flushed with saline and patted dry. The colons were then homogenized in 3× the weight of sterile water using a tissue homogenizer (Precellys homogenizer, Bertin Instruments) at approximately 4° C. All samples were stored at −80° C. for later bioanalysis.
The concentration of tofacitinib in each sample was determined as follows: the plasma and colon samples were vortexed, combined with a 50 μL aliquot of rat plasma, extracted with 200 μL of ACN containing an internal standard and quantified against the internal standard by LC-MS. An area-under-the-concentration curve (AUC0-6 h) was calculated for plasma and colon test compound and liberated tofacitinib. A key parameter to assess suitability for localized delivery of tofacitinib to the colon was the tofacitinib colon to plasma AUC ratio.

In data set [3] the test system is oxazolone-induced colitis. Briefly: Mouse model of oxazolone-induced colitis. The data set is classed as in vivo. The conditions noted are these: PO. On the procedure: Oxazolone-induced colitis is an experimental model that has a histological resemblance to human ulcerative colitis (Heller et al. […], 2002, 17, 629-638). Adult BALB/C mice (25-28 g, 9-12 weeks of age) from BioNeeds (India) were used in the assay. On Day 1, animals were lightly anesthetized with isoflurane and the hairs between the shoulder were carefully removed. Oxazolone (6 mg/mouse, 100 μL, 4:1 acetone:olive oil formulation) or vehicle solution was slowly applied to the bare skin patch to induce skin sensitization. Six days after skin sensitization, the mice were fasted overnight and then anesthetized with ketamine and xylazine administered intraperitoneally. A 1 mL syringe filled with oxazolone solution (0.5 mg/50 μL/mouse in 50% ethanol) or 50% ethanol/saline was inserted carefully ˜3.8 cm into the colon of the mouse. Animals were kept in a head down position and oxazolone or vehicle solution was rectally instilled very slowly over a minute. The mice were held vertically (head down) for another minute to ensure that the entire oxazolone or vehicle solution remained inside the colon. Test compound treatment (PO, BID or TID) or vehicle was initiated the evening prior to the oxazolone intrarectal (IR) challenge. On both first (Day 1) and second (Day 2) days post-oxazolone IR challenge, the Disease Activity Index (DAI) was assessed by treatment-blinded experimenters for each mouse, according to the following subscores: stool consistency (0, normal; 2, loose; 4, diarrhea), gross bleeding and hemoccult test (0, absence; 2, blood tinged; 4, overt blood presence), and weight loss (0, none; 1, 1%-5%; 2, 6^%-10%; 3, 11%-15%; 4, more than 15%); DAI=average of (stool consistency+blood presence+weight loss scores).
An area-under-the-curve (AUC) calculation based on total DAI scores was performed to track disease progression during the course of the experiment. AUC for each experimental group was calculated as: AUC=[(Day 1−Day 0)*Average (DAI Score of Day 0 & Day 1)]+[(Day 2−Day 1)*Average (DAI Score of Day 1 & Day 2)]. A Student's t-test compared the DAI AUC score of the vehicle/vehicle and vehicle/oxazolone groups to evaluate whether disease was induced following oxazolone treatment. This was followed by a one-way analysis of variance (ANOVA), with Dunnett's post hoc test, to compare the DAI AUC score of the vehicle/oxazolone and test compound/oxazolone groups. Statistical significance was defined by an α level set at p<0.05.

Values joined by “and” are separate entries in the source; they are usually repeats but may differ in a detail not shown here. Equal entries are not always repeated. Some results are limits rather than exact numbers.

With `C[C@@H]1CCN(C(=O)CC#N)C[C@@H]1N(C)c1ncnc2c1ccn2C(=O)N(C)c1cc(C(F)(F)F)ccc1O[C@@H]1O[C@H](C(=O)O)[C@@H](O)[C@H](O)[C@H]1O` [Compound III-4, (2S,3S,4S,5R,6S)-6-(2-(4-(((3R,4R)-1-(2-cyanoacetyl)-4-methylpiperidin-3-yl)(methyl)amino)-N-methyl-7H-pyrrolo[2,3-d]pyrimidine-7-carboxamido)-4-(trifluoromethyl)phenoxy)-3,4,5-trihydroxytetrahydro-2H-pyran-2-carboxylic Acid], the T½ in data set [1] was 6 min and < 15 min.
For the molecule `C[C@@H]1CCN(C(=O)CC#N)C[C@@H]1N(C)c1ncnc2c1ccn2C(=O)N(C)CCN(C)C(=O)OCc1ncccc1O[C@@H]1O[C@H](C(=O)O)[C@@H](O)[C@H](O)[C@H]1O` [Compound V-2, (2S,3S,4S,5R,6S)-6-((2-((((2-(4-(((3R,4R)-1-(2-Cyanoacetyl)-4-methylpiperidin-3-yl)(methyl)amino)-N-methyl-7H-pyrrolo[2,3-d]pyrimidine-7-carboxamido)ethyl)(methyl)carbamoyl)oxy)methyl)pyridin-3-yl)oxy)-3,4,5-trihydroxytetrahydro-2H-pyran-2-carboxylic Acid], the half-life at 10 μM in data set [1] was below 15 min.
Take `C[C@@H]1CCN(C(=O)CC#N)C[C@@H]1N(C)c1ncnc2c1ccn2C(=O)N(C)Cc1cc([N+](=O)[O-])ccc1O[C@@H]1O[C@H](C(=O)O)[C@@H](O)[C@H](O)[C@H]1O` [Compound III-7, (2S,3S,4S,5R,6S)-6-(2-((4-(((3R,4R)-1-(2-Cyanoacetyl)-4-methylpiperidin-3-yl)(methyl)amino)-N-methyl-7H-pyrrolo[2,3-d]pyrimidine-7-carboxamido)methyl)-4-nitrophenoxy)-3,4,5-trihydroxytetrahydro-2H-pyran-2-carboxylic Acid]: in data set [1], the T½ is listed as <15, <15 min and the half-life at 10 μM was below 15 min.
As for `C[C@@H]1CCN(C(=O)CC#N)C[C@@H]1N(C)c1ncnc2c1ccn2C(=O)N(C)Cc1ccccc1NC(=O)O[C@@H]1O[C@H](C(=O)O)[C@@H](O)[C@H](O)[C@H]1O` [Compound IV-1], the “Colon AUC” value in data set [2] is 5.15 µg·h/g. The T½ in data set [1] was 1 min and < 15 min.
As to `C[C@@H]1CCN(C(=O)CC#N)C[C@@H]1N(C)c1ncnc2c1ccn2C(=O)N(C)c1cc(Cl)ccc1O[C@@H]1O[C@H](C(=O)O)[C@@H](O)[C@H](O)[C@H]1O` [Compound III-5, (2S,3S,4S,5R,6S)-6-(4-Chloro-2-(4-(((3R,4R)-1-(2-cyanoacetyl)-4-methylpiperidin-3-yl)(methyl)amino)-N-methyl-7H-pyrrolo[2,3-d]pyrimidine-7-carboxamido)phenoxy)-3,4,5-trihydroxytetrahydro-2H-pyran-2-carboxylic Acid], in data set [1], the half-life at 10 μM was below 15 min.
With `C[C@@H]1CCN(C(=O)CC#N)C[C@@H]1N(C)c1ncnc2[nH]ccc12` [tofacitinib, 3-((3R,4R)-4-methyl-3-(methyl(7H-pyrrolo[2,3-d]pyrimidin-4-yl)amino)piperidin-1-yl)-3-oxopropanenitrile], the “reversal of oxazolone-induced colitis (DAI AUC score)” value is recorded as “did produce a statistically significant reversal” in data set [3] (positive control, 60 mg/kg, experiment with Compound 11-6); “statistically significant reversal” in data set [3] (positive control, 30 and 60 mg/kg, BID, experiment with Compound II-1); “did not produce a statistically significant reversal” in data set [3] (positive control, 30 and 60 mg/kg, BID, experiment with Compound III-1); “statistically significant reversal” in data set [3] (positive control, 30 and 60 mg/kg, BID, experiment with Compound III-2).
Consider `C[C@@H]1CCN(C(=O)CC#N)C[C@@H]1N(C)c1ncnc2c1ccn2C(=O)N(C)Cc1ccccc1O[C@@H]1O[C@H](C(=O)O)[C@@H](O)[C@H](O)[C@H]1O` [Compound III-6, (2S,3S,4S,5R,6S)-6-(2-((4-(((3R,4R)-1-(2-Cyanoacetyl)-4-methylpiperidin-3-yl)(methyl)amino)-N-methyl-7H-pyrrolo[2,3-d]pyrimidine-7-carboxamido)methyl)phenoxy)-3,4,5-trihydroxytetrahydro-2H-pyran-2-carboxylic Acid], for which the “reversal of oxazolone-induced colitis (DAI AUC score)” value in data set [3] (3, 10 and 30 mg/kg, BID, BALB/C mice, vs vehicle/oxazolone, p<0.05) is given as “did not produced a statistically significant effect”. Also, in data set [1], the T½ is reported as <15, <15 min and the half-life at 10 μM is below 15 min.
`C[C@@H]1CCN(C(=O)CC#N)C[C@@H]1N(C)c1ncnc2c1ccn2C(=O)N(C)CCN(C)C(=O)OCc1ccccc1O[C@@H]1O[C@H](C(=O)O)[C@@H](O)[C@H](O)[C@H]1O` [Compound V-1, (2S,3S,4S,5R,6S)-6-(2-((((2-(4-(((3R,4R)-1-(2-Cyanoacetyl)-4-methylpiperidin-3-yl)(methyl)amino)-N-methyl-7H-pyrrolo[2,3-d]pyrimidine-7-carboxamido)ethyl)(methyl)carbamoyl)oxy)methyl)phenoxy)-3,4,5-trihydroxytetrahydro-2H-pyran-2-carboxylic Acid]: in data set [1], the T½ is <15, <15 min and the half-life at 10 μM was below 15 min.
The corresponding values for `Cc1ccc(O[C@@H]2O[C@H](C(=O)O)[C@@H](O)[C@H](O)[C@H]2O)c(N(C)C(=O)n2ccc3c(N(C)[C@H]4CN(C(=O)CC#N)CC[C@H]4C)ncnc32)c1` [Compound III-3, (2S,3S,4S,5R,6S)-6-(2-(4-(((3R,4R)-1-(2-Cyanoacetyl)-4-methylpiperidin-3-yl)(methyl)amino)-N-methyl-7H-pyrrolo[2,3-d]pyrimidine-7-carboxamido)-4-methylphenoxy)-3,4,5-trihydroxytetrahydro-2H-pyran-2-carboxylic Acid] are below 15 min and 20 min.
